Laboratory results published in patent US20230062100A1, “SUBSTITUTED AMINOQUINOLONES AS DGKALPHA INHIBITORS FOR IMMUNE ACTIVATION” (Bayer Aktiengesellschaft, priority 2019, published 2023).

Target: T1, DGKα (Homo sapiens, UniProt P23743)
Assay: Human DGKα kinase activity inhibition assay (ADP-Glo)
Type: biochemical
Settings: in vitro human DGKα kinase activity inhibition assay
Summary of the method: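 C-terminally FLAG-tagged full-length human DGKα from baculovirus/insect cells (typically ~0.1 nM) phosphorylated 1,2-dioleoyl-sn-glycerol in octyl-β-D-glucopyranoside micelles in MOPS pH 7.4. ADP formed was quantified by ADP-Glo luminescence after 1 h ATP depletion at 22 °C.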
Target sequence in this assay (P23743 with tags, fused parts or gaps): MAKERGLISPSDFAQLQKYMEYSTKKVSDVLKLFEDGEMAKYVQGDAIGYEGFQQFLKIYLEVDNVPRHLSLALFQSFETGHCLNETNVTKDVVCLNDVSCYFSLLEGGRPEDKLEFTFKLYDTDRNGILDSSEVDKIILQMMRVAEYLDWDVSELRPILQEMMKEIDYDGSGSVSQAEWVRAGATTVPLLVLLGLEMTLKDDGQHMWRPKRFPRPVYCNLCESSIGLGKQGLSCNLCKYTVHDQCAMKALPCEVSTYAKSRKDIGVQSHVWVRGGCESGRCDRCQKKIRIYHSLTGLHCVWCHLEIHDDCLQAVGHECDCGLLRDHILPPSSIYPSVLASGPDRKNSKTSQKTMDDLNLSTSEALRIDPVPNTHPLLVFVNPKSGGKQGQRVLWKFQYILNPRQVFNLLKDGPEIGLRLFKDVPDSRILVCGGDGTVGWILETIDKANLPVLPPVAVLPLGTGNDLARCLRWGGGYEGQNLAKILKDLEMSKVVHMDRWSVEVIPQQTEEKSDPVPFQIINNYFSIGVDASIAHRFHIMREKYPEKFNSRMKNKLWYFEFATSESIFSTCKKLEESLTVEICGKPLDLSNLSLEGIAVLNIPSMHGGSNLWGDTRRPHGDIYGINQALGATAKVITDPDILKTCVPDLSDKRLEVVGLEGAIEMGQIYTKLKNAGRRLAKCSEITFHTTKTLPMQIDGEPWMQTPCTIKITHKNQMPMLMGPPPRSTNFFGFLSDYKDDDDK
`COCCc1ccc2c(N3CCC(Oc4ccc(Cl)cc4)CC3)c(C#N)c(=O)n(C)c2c1` [Example 75, 4-[4-(4-chlorophenoxy)piperidin-1-yl]-7-(2-methoxyethyl)-1-methyl-2-oxo-1,2-dihydroquinoline-3-carbonitrile] gave an IC50 of 3.7 nM. Work on `Cn1c(=O)c(C#N)c(N2CCC(Oc3ccc(OC(F)(F)F)cc3)CC2)c2ccc(P(C)(C)=O)cc21` [Example 79, 7-(dimethylphosphoryl)-1-methyl-2-oxo-4-{4-[4-(trifluoromethoxy)phenoxy]piperidin-1-yl}-1,2-dihydroquinoline-3-carbonitrile] yielded an IC50 of 416 nM. With `Cn1c(=O)c(C#N)c(N2CCC(Oc3ccc(-n4ccnc4)cc3)CC2)c2ccccc21` [Example 19, 4-{4-[4-(1H-imidazol-1-yl)phenoxy]piperidin-1-yl}-1-methyl-2-oxo-1,2-dihydroquinoline-3-carbonitrile] the IC50 was 64 nM. With `Cn1c(=O)c(C#N)c(N2CCC(Oc3ccc(OC(F)(F)F)cc3)CC2)c2ccc(F)cc21` [Example 63, 7-fluoro-1-methyl-2-oxo-4-{4-[4-(trifluoromethoxy)phenoxy]piperidin-1-yl}-1,2-dihydroquinoline-3-carbonitrile] the IC50 was 12 nM. Compound `Cn1c(=O)c(C(N)=O)c(N2CCC(Oc3ccc(OC(F)(F)F)cc3)CC2)c2ccc(Cl)cc21` [Example 98, 7-chloro-1-methyl-2-oxo-4-{4-[4-(trifluoromethoxy)phenoxy]piperidin-1-yl}-1,2-dihydroquinoline-3-carboxamide] has an IC50 of 1.9 nM. With `Cn1c(=O)c(C#N)c(N2CCC(Oc3cccc(OC(F)(F)F)c3)CC2)c2ccc(Br)cc21` [Example 61, 7-bromo-1-methyl-2-oxo-4-{4-[3-(trifluoromethoxy)phenoxy]piperidin-1-yl}-1,2-dihydroquinoline-3-carbonitrile] the IC50 was 22 nM. Compound `COc1ccccc1OC1CCN(c2c(C#N)c(=O)n(C)c3ccccc23)CC1` [Example 11, 4-[4-(2-methoxyphenoxy)piperidin-1-yl]-1-methyl-2-oxo-1,2-dihydroquinoline-3-carbonitrile] has an IC50 of 11 nM. `Cn1c(=O)c(C#N)c(N2CCC(Oc3ccc4cnoc4c3)CC2)c2ccccc21` [Example 29, 4-{4-[(1,2-benzoxazol-6-yl)oxy]piperidin-1-yl}-1-methyl-2-oxo-1,2-dihydroquinoline-3-carbonitrile] showed an IC50 of 654 nM.

Target: T1, DGKα
Assay: not given
Settings: literature report; cited from earlier work
Target sequence in this assay (P23743 whole entry, species assumed): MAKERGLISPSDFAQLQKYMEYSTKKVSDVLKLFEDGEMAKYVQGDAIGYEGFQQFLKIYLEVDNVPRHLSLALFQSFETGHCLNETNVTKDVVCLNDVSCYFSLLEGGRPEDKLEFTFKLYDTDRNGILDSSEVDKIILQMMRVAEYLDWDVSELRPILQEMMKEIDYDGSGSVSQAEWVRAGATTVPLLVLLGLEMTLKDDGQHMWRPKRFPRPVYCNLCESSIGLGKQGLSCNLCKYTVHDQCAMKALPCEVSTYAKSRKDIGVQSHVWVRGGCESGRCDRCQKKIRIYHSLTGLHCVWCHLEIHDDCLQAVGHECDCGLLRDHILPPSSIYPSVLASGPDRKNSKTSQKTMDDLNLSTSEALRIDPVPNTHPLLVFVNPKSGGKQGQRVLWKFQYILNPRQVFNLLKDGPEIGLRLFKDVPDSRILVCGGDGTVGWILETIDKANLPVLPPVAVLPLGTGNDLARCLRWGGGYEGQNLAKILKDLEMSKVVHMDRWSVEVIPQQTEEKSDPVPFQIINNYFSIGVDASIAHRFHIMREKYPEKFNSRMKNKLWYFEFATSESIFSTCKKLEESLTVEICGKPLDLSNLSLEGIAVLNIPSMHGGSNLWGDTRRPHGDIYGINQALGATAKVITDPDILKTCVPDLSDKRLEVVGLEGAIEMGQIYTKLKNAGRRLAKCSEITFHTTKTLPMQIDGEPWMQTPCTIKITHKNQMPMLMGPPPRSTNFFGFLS
For `Cc1ccc2c(C(=O)CN3CCN(C(=O)c4ccco4)CC3)c(C)[nH]c2c1` [AMB639752], the “inhibitory activity on DGKα” value is listed as “micromolar”. In the case of `Cc1nc2sccn2c(=O)c1CCN1CCC(=C(c2ccc(F)cc2)c2ccc(F)cc2)CC1` [Ritanserin], the “inhibitory activity on DGKα” value is given as “comparable activity”. For `O=C1/C(=C\C=C\c2ccco2)SC(=S)N1NS(=O)(=O)c1ccccc1` [CU-3], the “inhibitory activity on DGKα” value is listed as “sub-micromolar”.

Tested on: GBM tumors
Assay: not given
Settings: concurrent administration; literature report; cited from earlier work
In the case of `Cc1nc2sccn2c(=O)c1CCN1CCC(=C(c2ccccc2)c2ccc(F)cc2)CC1` [Example R59022], the “growth of intracranially injected GBM tumors” value is given as “decreased growth”.
